# US7550437B2, “Compositions for preventing and treating digestive organs diseases” (Fuso Pharmaceutical Industries, Ltd., priority 2000, dated 2009)
# No end group written: not given here.
# Experiments:
# [1] = test system: gastric acid secretion accelerated by carbachol; assay: Carbachol-induced gastric acid secretion in pylorus-ligated rats; assay type: in vivo, rat; conditions: carbachol 60 μg/kg s.c., amastatin 2.5 μmol/kg i.v., FIG. 1
# Protocol: In an experiment, male Wistar rats at 5 weeks of age were used. After each animal was pre-bred for one week under the circumstance of a room temperature of 23±2° C., the humidity of 50±5%, and the light-and-darkness cycle (light term: from 07:00 to 19:00) of 12 hours, each animal was subjected to the experiment. Water and solid feed were supplied freely during the pre-breeding period and the experiment period.
# Moreover, the number of animals used in the experiment was 4-14 animals in all cases, and the results were shown by Mean±Standard Error. The significant difference test was performed by Tukey's multiple comparison test.
# A rat was anesthetized with ether after 18-24 hours of fasting, and an abdomen was incised by about 1 cm below a lower end of xiphoid sternum. Duodenum was pinched out of the opened abdominal hole, a part joining pylorus and duodenum was ligated, and the incised abdomen was sutured. After 30 minutes, the rat was exsanguinated to kill, the stomach was isolated, and gastric juice was collected. After the collected gastric juice was filtered, the acidity in the gastric juice was measured by a titration method. […]
# PAR-2 = biological target: T1, PAR-2 (Homo sapiens, UniProt P55085); conditions: literature statement; cited from earlier work
# T1 sequence (P55085 26-397): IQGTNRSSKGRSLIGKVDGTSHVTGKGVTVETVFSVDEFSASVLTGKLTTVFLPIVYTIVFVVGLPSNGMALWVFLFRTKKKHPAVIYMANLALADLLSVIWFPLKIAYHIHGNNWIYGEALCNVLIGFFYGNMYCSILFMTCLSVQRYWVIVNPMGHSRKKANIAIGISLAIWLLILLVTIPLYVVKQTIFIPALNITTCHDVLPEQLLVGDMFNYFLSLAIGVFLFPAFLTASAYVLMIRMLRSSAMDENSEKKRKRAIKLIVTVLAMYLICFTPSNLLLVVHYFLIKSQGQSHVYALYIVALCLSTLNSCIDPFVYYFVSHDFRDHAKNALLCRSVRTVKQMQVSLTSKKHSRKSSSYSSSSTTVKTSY
# [2] = test system: rat gastric mucosal cells; assay: Mucin secretion from rat gastric mucosal cells in vivo (galactose in gastric juice); conditions: amastatin 2.5 μmol/kg i.v., FIG. 2
# Protocol: The gastric pylorus was ligated by the same procedure as described above. Amastatin (2.5 μmol/kg) was administered intravenously immediately after the ligation, and SLp-NH2, LSp-NH2 or tcLP-NH2 was administered intravenously at 1 minute after administration of amastatin. 30 minutes after ligation, the rats was exsanguinated to kill, the stomach was isolated, and the gastric juice was collected. The collected sample of gastric juice was centrifuged at 10000×g for 30 min, and the supernatant was subjected to ultrafiltration with Millipore MC FREE (MW10000), followed by lyophilization. 2M TFA was added to the lyophilized sample, which was hydrolyzed under the conditions at 100° C. for 4 hours. Centrifugal separation was then performed and the supernatant was evaporated to dryness. 200 μL of 0.1 M Tris-HCl was added to the evaporated and dried sample to dissolve it. After 150 μL of a reaction solution containing galactose oxidase (1U), peroxidase (0.5 mU) and HPPA (0.25 μmol) was added to 50 μL of the sample and the mixture was incubated at 37° C. for 30 minutes, an amount of galactose was measured at an excitation wavelength of 320 nm and an fluorescence wavelength of 405 nm.
# [3] = test system: lesion in gastric mucosa by hydrochloric acid-ethanol; assay: Hydrochloric acid-ethanol-induced gastric mucosa lesion; assay type: in vivo, rat; conditions: 0.25 and 0.5 μmol/kg i.v. 5 min before 60% ethanol containing 150 mM hydrochloric acid p.o.; amastatin 2.5 μmol/kg; FIG. 4
# Protocol: (§1) Preparation of ethanol- and hydrochloric acid-ethanol-induced gastric mucosa lesion was performed according to the method of Robert et al. (Robert, A. et al., Gastroenteral, 77, 433-443, 1979). That is, after the rats were fasted for 18 to 24 hours, 1 mL of 75% ethanol or 60% ethanol containing 150 mM hydrochloric acid was administered orally. Rats were exsanguinated to kill after 60 min and their stomaches were isolated. The isolated stomach was incised along with greater curvature, washed and fixed with 10% formaldehyde, and an area of gastric mucosa lesion was measured using Image analyzing software, Mac acpect (Mitani corporation, Chiba prefecture). SLp-NH2 was administered intravenously at 5 minutes before administration of 75% ethanol or 60% ethanol containing 150 mM hydrochloric acid. Amastatin (2.5 μmol/kg) was administered at 1 minute before administration of SLp-NH2.
# [4] = test system: gastric mucosa lesion by ethanol; assay: Ethanol-induced gastric mucosa lesion; assay type: in vivo, rat; conditions: 0.25 and 0.5 μmol/kg i.v. 5 min before 75% ethanol p.o.; amastatin 2.5 μmol/kg; FIG. 3
# Protocol: as §1
# human PAR-1 = biological target: T2, human PAR-1 (Homo sapiens, UniProt P25116); conditions: literature statement; cited from earlier work
# T2 sequence (P25116 22-425): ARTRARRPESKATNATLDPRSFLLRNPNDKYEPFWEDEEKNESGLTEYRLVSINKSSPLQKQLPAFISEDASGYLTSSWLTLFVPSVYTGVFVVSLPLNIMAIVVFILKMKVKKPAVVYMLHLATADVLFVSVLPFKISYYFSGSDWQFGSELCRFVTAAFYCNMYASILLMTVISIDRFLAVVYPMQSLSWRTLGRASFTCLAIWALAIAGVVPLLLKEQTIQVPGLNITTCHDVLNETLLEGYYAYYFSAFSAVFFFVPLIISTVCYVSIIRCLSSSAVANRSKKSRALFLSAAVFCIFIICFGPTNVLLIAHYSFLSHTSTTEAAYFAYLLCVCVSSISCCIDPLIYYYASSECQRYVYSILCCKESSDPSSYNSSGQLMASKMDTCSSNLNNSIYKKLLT
substance,measurement,setting,value
"Leu-Ser-Ile-Gly-Arg-Leu-NH2 (LSIGRL-NH2) [LSp-NH2, control peptide for SLp-NH2]",effect on gastric acid secretion accelerated by carbachol (amount of secreted gastric acid),[1]; 5 μmol/kg i.v.,did not affect
same,agonist activity on PAR-2,PAR-2,inactive substance
same,effect on mucin secretion from rat gastric mucosal cells,"[2]; i.v., dose not given",did not affect mucin secretion
Ser-Leu-Ile-Gly-Arg-Leu-NH2 (SLIGRL-NH2) [SLp-NH2],effect on gastric mucosa lesion (area) by hydrochloric acid-ethanol,[3],the protective effect was shown
same,effect on gastric mucosa lesion (area) by ethanol,[4],showed the protective effect
same,effect on gastric acid secretion accelerated by carbachol (amount of secreted gastric acid),[1]; 1.25 to 5 μmol/kg i.v.,inhibited dose-dependently
same,effect on mucin secretion from rat gastric mucosal cells,[2]; 0.02 to 5 μmol/kg i.v.,accelerated dose-dependently
Ser-Phe-Leu-Leu-Arg-NH2 (SFLLR-NH2) [SFp-NH2],agonist activity on human PAR-1,human PAR-1,agonist activity on human PAR-1
same,agonist activity on PAR-2,PAR-2,week agonist activity on PAR-2
trans-cinnamoyl-Leu-Ile-Gly-Arg-Leu-ornithine-NH2 [tcLp-NH2],agonist activity on PAR-2,PAR-2,specifically activate PAR-2
same,effect on mucin secretion from rat gastric mucosal cells,"[2]; i.v., dose not given",also accelerated the mucin secretion
